The test system of series [1] is Plasmodium falciparum. Description: NOVARTIS: Inhibition of Plasmodium falciparum 3D7 (drug-susceptible) proliferation in erythrocyte-based infection assay. It is filed as functional, organism-based. The note with it: Plasmodium falciparum, 3D7.
Series [2] deals with Plasmodium falciparum. Description: NOVARTIS: Inhibition of Plasmodium falciparum W2 (drug-resistant) proliferation in erythrocyte-based infection assay. It counts as functional, organism-based. As to conditions: Plasmodium falciparum, W2; read-out: EC50.
Series [3] in a line: NOVARTIS: Cytotoxicity against human hepatocellular carcinoma cell line (Huh7). It counts as toxicity, cell-based, Huh-7. As to conditions: Huh7 cells (hepatocellular carcinoma cell line).

Molecules are shown by their SMILES.

For the molecule `O=C1/C(=C\c2ccccc2)SC(=Nc2ccccc2)N1C1CCCCC1`, the values for the EC50 in series [1] and in series [2] were 0.348 µM and 0.545 µM, respectively. This molecule also displayed a cytotoxic concentration (CC50) in series [3] of over 100 µM.
Taken in the same sequence, the figures for `CCOC(=O)c1cnc2ccc(CC)cc2c1O` were 0.716 µM, 0.525 µM and over 100 µM.
Taken in the same sequence, the figures for `O=C(COc1ccccc1)NC(c1ccc([N+](=O)[O-])cc1)c1cc(Cl)c2cccnc2c1O` (stereo not drawn) were 0.605 µM, 0.434 µM and over 80.6 µM.
The matching figures for `Cc1cc(NCCN2CCCCC2)c2ccc3ccccc3c2n1`: 0.0441 µM, 0.081 µM and 15.6 µM.
As for `Cc1cc(NC(=O)c2ccc(S(=O)(=O)N(Cc3ccccc3)C(C)C)cc2)no1`, the concentration giving a half-maximal response (EC50) was determined as 2.69 µM in series [1] and 0.538 µM in series [2]. The same molecule returned a cytotoxic concentration (CC50) in series [3] of over 100 µM.
Taken in the same sequence, the figures for `Cc1nc2ccccc2c(O)c1CC=C(Cl)Cl` were 0.498 µM, 0.514 µM and over 100 µM.
`O=c1cc[nH]c2cc(N3CCCCCC3)c(F)cc12`: the EC50 was 1.31 µM in series [1] and 0.497 µM in series [2]. Further, the CC50 in series [3] is over 92 µM.
Taken in the same sequence, the figures for `CCc1c(C)c(=N)c2ccccc2n1C` were 0.701 µM, 0.534 µM and over 100 µM.
The matching figures for `CCCCc1c(C)nc2ccc(Br)cc2c1O`: 1.96 µM, 0.532 µM and over 100 µM.
The matching figures for `CCCCCCCn1c(=N)n(CC(O)c2ccc(Cl)c(Cl)c2)c2ccccc21` (stereo not drawn): 0.204 µM, 0.0335 µM and 6.5 µM.
Take `COCCCNc1nc2cc(OC)c(OC)cc2c2nc(-c3ccccc3)nn12`: the EC50 was 0.621 µM in series [1] and 0.541 µM in series [2]. In series [3], the CC50 is over 100 µM.
The matching figures for `CN1CCN(Cc2c(O)ccc3c(=O)c(Oc4ccc(C(C)(C)C)cc4)c(C(F)(F)F)oc23)CC1`: 1.8 µM, 0.547 µM and over 100 µM.
Taken in the same sequence, the figures for `CCOc1ccc(NC(=O)c2ccc(F)c(S(=O)(=O)NC3CCCC(C)C3C)c2)cc1` (stereo not drawn) were 1.04 µM, 0.178 µM and 32.2 µM.
With `CN(C)c1ccc(C2N(C)c3ccccc3N2C)cc1`, the figures for the EC50 in series [1] and in series [2] were 0.913 µM and 0.551 µM, respectively. In series [3], this molecule yielded a 50% cytotoxic concentration (CC50) of over 100 µM.
Taken in the same sequence, the figures for `Cc1n(C)c2ccccc2[n+]1CC(=O)c1ccccc1` were 0.114 µM, 0.547 µM and over 100 µM.
The matching figures for `C=CCSc1nnc2c(n1)[nH]c1ccc(OCC)cc12`: 5.62 µM, 0.549 µM and over 100 µM.
Turning to `COc1ccc(CNCCN2CCN(c3ccccc3)C[C@@H]2Cc2ccc(O)cc2)cc1`, the EC50 was 0.0521 µM in series [1] and 0.0549 µM in series [2]. The molecule also gave a cytotoxic concentration (CC50) in series [3] of over 10 µM.
The matching figures for `CC1=C(C(=O)Nc2ccc(C)cc2C)C(c2ccc([N+](=O)[O-])cc2)n2ncc(C(=O)Nc3ccc(F)cc3)c2N1` (stereo not drawn): 0.585 µM, 0.514 µM and over 100 µM.
Taken in the same sequence, the figures for `Cc1cc(C)cc(NC(=S)NCCO)c1` were 3.86 µM, 0.513 µM and over 100 µM.
Taken in the same sequence, the figures for `COc1ccc(C(=O)C[n+]2ccc3c(c2)nc(-c2ccc(OC)cc2OC)n3C)cc1` were 0.92 µM, 0.512 µM and over 100 µM.
`CCc1nc2nc(C)cc(Nc3ccc(F)c(Cl)c3)n2n1`: the EC50 worked out at 0.543 µM in series [1] and 0.547 µM in series [2]. Also, in series [3], the CC50 is over 100 µM.
For the molecule `COc1ccc(C(NC(=O)c2cccnc2)c2cc(Cl)c3cccnc3c2O)cc1` (stereo not drawn), the EC50 in series [1] is 0.945 µM; in series [2] it was 0.528 µM. The CC50 in series [3] was over 100 µM.
The matching figures for `C=C[C@H]1CN2CC[C@H]1C[C@@H]2[C@@H](OC(=O)Cc1ccccc1)c1ccnc2ccccc12`: 0.0494 µM, 0.0517 µM and over 10 µM.
Consider `O=C(C1CCC1)N1CCOc2c(cc(-c3csc4ccccc34)cc2OCCc2ccccn2)C1`, for which the EC50 was 0.754 µM in series [1] and 0.515 µM in series [2]. Moreover, in series [3], the cytotoxic concentration (CC50) was over 99.6 µM.
The matching figures for `Cc1cccc(NC(c2ccccc2F)c2ccc3cccnc3c2O)n1` (stereo not drawn): 2.94 µM, 0.331 µM and over 61.8 µM.
Taken in the same sequence, the figures for `O=[N+]([O-])c1cc(Cl)c(N2CCOCC2)cc1N1CCOCC1` were 1.04 µM, 0.515 µM and over 100 µM.
The matching figures for `CN(C)CC(O)Cn1c2ccccc2c2ccccc21` (stereo not drawn): over 11.7 µM, 0.275 µM and 52.8 µM.
With `O=C1C=C(Nc2cccc(C(F)(F)F)c2)C(=O)c2ccccc21`, the EC50 in series [1] is 0.549 µM; in series [2], 0.519 µM. In series [3], this molecule showed a 50% cytotoxic concentration (CC50) of over 100 µM.
Taken in the same sequence, the figures for `c1cc(C2=NCCN2)ccc1OCCCOc1ccc(C2=NCCN2)cc1` were 0.00558 µM, 0.0518 µM and over 10 µM.
The matching figures for `COC(=O)c1c(OCc2ccc(F)cc2)cc(=O)n2c1CCN(Cc1ccccc1)CC2`: 3.94 µM, 0.538 µM and over 100 µM.
On to `Cc1cccc(NC(c2ccncc2)c2ccc3cccnc3c2O)n1` (stereo not drawn), for which the half-maximal effective concentration (EC50) was 0.669 µM in series [1] and 0.375 µM in series [2]. Besides, the CC50 in series [3] amounted to 69.9 µM.
The matching figures for `Cc1cc(C)cc(Nc2cc(C)nc3nc(C)nn23)c1`: 0.594 µM, 0.536 µM and over 100 µM.
The matching figures for `N#Cc1c2c(c(NCc3ccccn3)n3c1nc1ccccc13)CCCC2`: 0.223 µM, 0.522 µM and over 100 µM.
Taken in the same sequence, the figures for `CN(C)[C@@H]1CCN(Cc2cccc(Cl)c2)C[C@@H]1CCC(=O)NCCCN1CCOCC1` were 0.593 µM, under 0.0154 µM and over 2.94 µM.
Regarding `COc1cc(OC)cc(C(=O)Oc2ccccc2-c2nc3cc(C)ccn3c2NC(C)(C)CC(C)(C)C)c1`, the 50% effective concentration (EC50) in series [1] is 0.946 µM; in series [2] it was 0.054 µM. Moreover, the 50% cytotoxic concentration (CC50) in series [3] is over 10 µM.
Taken in the same sequence, the figures for `Clc1cccc(-c2cn3ccnc3c(N3CCN(c4ccncc4)CC3)n2)c1` were over 1.25 µM, over 0.0526 µM and over 10 µM.
The matching figures for `COc1ccc(C[n+]2cc(-c3ccc(Cl)cc3)n3ccccc32)cc1`: 0.413 µM, 0.524 µM and over 100 µM.
The matching figures for `COc1ccc(OC)c(C2C3=C(CC(C)(C)CC3=O)N(c3ccc(Cl)c(Cl)c3)C3=C2C(=O)CC(C)(C)C3)c1`: 0.43 µM, 0.546 µM and over 100 µM.
As for `Cc1nc2ccccc2n1S(C)(=O)=O`, the values for the EC50 in series [1] and in series [2] were 0.0596 µM and 0.0543 µM, respectively. In addition, the half-maximal cytotoxic concentration (CC50) in series [3] was over 10 µM.
The matching figures for `CC(C)CNC(=O)c1cnc(NCCCN2CCCCC2C)nc1NC1CCCC1` (stereo not drawn): 0.91 µM, 0.0528 µM and over 10 µM.
Consider `O=C(/C=C/c1cccnc1)C12CC3CC(CC(C3)C1)C2`, for which the results for the EC50 in series [1] and in series [2] were 0.102 µM and 0.0528 µM, respectively. The half-maximal cytotoxic concentration (CC50) in series [3] was over 10 µM.
Regarding `CCCCNC(=O)C(CC(C)C)N1C(=O)c2cc(NC(C)=O)ccc2NC(=O)[C@@H]1C` (stereo partly drawn), the EC50 is 0.0283 µM in series [1] and 0.0672 µM in series [2]. In series [3], this molecule showed a CC50 of over 12.8 µM.
On to `Cc1ccccc1CN1CCN(CC=Cc2ccccc2)CCC1=O`, for which the EC50 in series [1] is 1.43 µM; in series [2], 0.531 µM. The same molecule displayed a CC50 in series [3] of over 100 µM.
Taken in the same sequence, the figures for `Cc1cc(N2CCN(Cc3ccc(F)cc3)CC2)n2c(nc3ccccc32)c1C#N` were 0.625 µM, 0.53 µM and over 100 µM.
For `CCN1CCN(Cc2cc(Cl)cc(Cl)c2O)CC1`, the 50% effective concentration (EC50) came to 3 µM in series [1] and 0.529 µM in series [2]. In series [3], this molecule displayed a CC50 of over 100 µM.
As to `CCOC(=O)C1CCN(C(=O)CN2C(=O)c3ccccc3C2c2c[nH]c3ccccc23)CC1` (stereo not drawn), the EC50 in series [1] came out at 0.519 µM; in series [2] it was 0.513 µM. The CC50 in series [3] is over 100 µM.
Taken in the same sequence, the figures for `Cc1cc(C)cc(NC2=C(N)C(=O)c3ccccc3C2=O)c1` were 0.969 µM, 0.551 µM and over 100 µM.
Regarding `Cc1cc(Nc2ccc([N+](=O)[O-])cc2O)nc2ccccc12`, the 50% effective concentration (EC50) was 0.357 µM in series [1] and 0.144 µM in series [2]. The molecule further yielded a CC50 in series [3] of 28.1 µM.
The matching figures for `CCCNC1=C(N(C(C)=O)c2cccc(F)c2)C(=O)c2ccccc2C1=O`: 0.029 µM, 0.0284 µM and 5.39 µM.
Taken in the same sequence, the figures for `COc1ccc(-c2c[n+](CC(=O)c3cccc(OC)c3)c3n2CCC3)cc1` were 0.954 µM, 0.53 µM and over 100 µM.
The matching figures for `CC(C)(C)c1nn(-c2ccc(Cl)cc2)c2[nH]c(=O)c(CNCc3ccccc3)cc12`: 0.731 µM, 0.539 µM and over 100 µM.
Consider `CCOC(=O)c1cnc2ccccc2c1Nc1ccc(C(C)=O)cc1`, for which the half-maximal effective concentration (EC50) in series [1] was determined as 0.343 µM; in series [2] it was 0.386 µM. The molecule also yielded a CC50 in series [3] of over 73.8 µM.
Taken in the same sequence, the figures for `CCS/C(Cl)=C(/NC(=O)c1ccccc1)[P+](c1ccccc1)(c1ccccc1)c1ccccc1` were 0.11 µM, 0.052 µM and over 10 µM.
Taken in the same sequence, the figures for `CCCCSCC(O)CN1CCCCC1` (stereo not drawn) were 5.28 µM, 0.534 µM and over 100 µM.
Turning to `CCN(CC)CCNc1ncnc2c1[nH]c1ccc(F)cc12`, the EC50 in series [1] is 0.277 µM; in series [2], 0.169 µM. This molecule gave a CC50 in series [3] of 31.5 µM.
On to `O=S(=O)(c1ccc(Cl)cc1)N1CCN(C(=S)NCc2ccco2)CC1`, for which the EC50 amounted to 0.973 µM in series [1] and 0.524 µM in series [2]. The 50% cytotoxic concentration (CC50) in series [3] was over 100 µM.

One may read the EC50 as the midpoint of the concentration-response curve. Broadly, the CC50 is the concentration at which the toxic effect on the cells reaches its halfway point. A higher CC50 goes with better tolerance by the cells.

The values above are taken from ChEMBL document CHEMBL1156829 (Proc Natl Acad Sci U S A, 2008).
